{"source": "paper PMC11926788", "about": "“Effect of SSR504734, a Selective Glycine Transporter Type 1 Inhibitor, on Seizure Thresholds, Neurotransmitter Levels, and Inflammatory Markers in Mice” (ACS Chemical Neuroscience, 2025)", "key": {"[1]": {"system": "tonic hindlimb extension in the MEST test in mice", "assay": "Maximal electroshock seizure threshold (MEST) test", "assay_type": "in vivo", "description": "A sinusoidal current alternation was delivered via saline-soaked transcorneal electrodes. Before stimulation, an ocular anesthetic (1% tetracaine hydrochloride solution obtained from Sigma-Aldrich, St. Louis, MO, USA) was administered to each eye of the mice. During stimulation, the mice were manually immobilized in a hand for 3–5 s and immediately relocated to a transparent box for behavioral observation after the stimulation. Hindlimb tonic extension was taken as an end point. Two experimental approaches were employed: (1) the maximal electroshock seizure threshold (MEST) test at varied current intensities and (2) the maximal electroshock (MES) test at a fixed current intensity.\nIn the MEST test, seizure thresholds were determined using the “up-and-down” method described by Kimball et al.[28] […] Each mouse was stimulated only once."}, "[2]": {"system": "6 Hz-induced psychomotor seizures in mice", "assay": "6 Hz-induced psychomotor seizure threshold test", "assay_type": "in vivo", "details": "SSR504734 any of the doses tested, VPA 150 mg/kg", "description": "Psychomotor seizures were induced through the application of rectangular pulses (0.2 ms width; 6 pulses per second) for 3 s using a Grass model CCU1 constant current unit coupled to a Grass S48 stimulator (Grass Technologies, Warwick, RI, USA). Stimuli were delivered via saline-soaked transcorneal electrodes. An ocular anesthetic (1% tetracaine hydrochloride) was administered on the animal’s corneas. Mice were restrained manually during stimulation and placed in transparent box immediately for behavioral observation. 6 Hz-induced seizures were characterized by head-nodding, chewing, eye-blinking, twitching of the vibrissae, rearing, stunned posture, forelimb clonus, and Straub tail. The absence of the described features or the return to normal exploratory behavior within 20 s poststimulation was considered as the absence of seizures. The 6 Hz seizure threshold test were conducted on groups of 20 animals stimulated with different current intensities by using the “up-and-down” method described by Kimball et al.[28]\nThe seizure threshold was quantified as the median current strength (CS50 value with confidence limits for 95% probability), predicting the induction of psychomotor seizures in 50% of the tested animals."}, "[3]": {"system": "tonic hindlimb extension in the MEST test in rats", "details": "cited from earlier work"}, "[4]": {"system": "inflammatory markers in liver homogenates", "assay": "Inflammatory markers in liver (ELISA)", "assay_type": "in vivo, mice", "details": "14-day administration, 30 mg/kg i.p.", "description": "Samples of liver tissue were homogenized with a protease inhibitor solution (0.4 M NaCl, 0.05% Tween 20, 0.5% bovine serum albumin, 0.1 mM phenylmethylsulfonylfluoride, 0.1 mM benzethonium chloride, 10 mM EDTA, and 10 μg/mL aprotinin). Homogenates were centrifuged at 12,000 rpm at 4 °C, and supernatant fluids were collected and stored at −80 °C until analysis. The entire procedure was described by Zhao et al.[29]\nELISA kits were used to determine IL-1-β, IL-6, IL-10, TNF-α, and IFN-γ (EIAAB Science INC, Wuhan, Hubei, China, nos. E0563m, E0079m, E0056m, E0049m, E0133m, E0753m) and IL-18 (Biorbyt Ltd., Cambridge, United Kingdom, no. orb437211) in the liver homogenates and serum. All assays were performed according to the producer’s instructions. All samples were tested in triplicate."}, "[5]": {"assay": "PAMPA (Gentest Precoated PAMPA Plate System)", "assay_type": "in vitro ADME", "details": "± SD", "description": "(§1) A series of in vitro ADME-Tox tests were performed for SSR504734 in order to estimate its drugability. The ADME-Tox parameters including permeability, plasma protein binding, metabolic stability, neurotoxicity, and hepatotoxicity were carried out as described previously.[31],[32] The ability of SSR504734 to penetrate through the biological membrane by passive diffusion was estimated by the Gentest Precoated PAMPA Plate System (Corning, Tewksbury, MA) and expressed as the permeability coefficient (Pe). The protein binding analysis was performed by using the commercial TRANSIL^XL PPB test, which mimics in vitro physiological plasma conditions where human serum albumin (HAS) and alpha-1-acid glycoprotein AGP are present in a 24:1 ratio. The human metabolism of SSR504734 was studied using human liver microsomes (HLMs) provided by Sigma-Aldrich. The hepatotoxicity and neurotoxicity were estimated in cellular models with the use of hepatoma HepG2 and neuroblastoma SH-SY5Y cell lines to perform the preliminary safety tests. The cells were incubated with SSR504734 at the concentration range of 0.1–100 μM. 1 μM cytostatic drug doxorubicin (DX) was used as the reference."}, "[6]": {"system": "i.v. PTZ-induced seizures in mice", "assay": "Intravenous (i.v.) PTZ seizure threshold test", "assay_type": "in vivo", "details": "VPA 150 mg/kg", "description": "Mice were individually placed in a plastic restrainer (12 cm long, 3 cm inner diameter), and the lateral vein of each mouse was catheterized using a 27-gauge needle (Sterican, B. Braun Melsungen, Melsungen, Germany). The needle was attached by polyethylene tubing (PE20RW, Plastics One Inc., Roanoke, VA, USA) to a 10 mL plastic syringe containing 1% solution of PTZ in saline (Sigma-Aldrich, St. Louis, MO, USA) and mounted to a syringe pump (model Physio 22, Hugo Sachs Elektronik, Harvard Apparatus GmbH, March-Hugstetten, Germany). Piece of adhesive tape was used to secure the needle. The proper placement of the needle in the vein was verified by the appearance of blood in the tubing. During the test, mice were placed in a transparent box for observation. The PTZ solution was administered to freely moving mice at a constant rate of 0.2 mL/min. The time intervals from the initiation of PTZ infusion to the occurrence of the three following end points, i.e., (1) the first myoclonic twitch, (2) generalized clonic seizure with loss of righting reflex, and (3) forelimb tonus, were recorded. The PTZ infusion was terminated when tonic seizures, which were often fatal for the mice, began. All mice that survived were euthanized immediately. The thresholds were calculated separately for each end point using the following formula: threshold dose of PTZ (mg/kg) = infusion duration (s) × infusion rate (mL/s) × PTZ concentration (mg/mL)/body weight (kg). Seizure threshold was expressed as the amount of PTZ (mg/kg) ± SD (standard deviation) needed to produce the first observable sign of each end point. Each group consisted of 12–15 animals."}, "[7]": {"system": "human serum albumin and alpha-1-acid glycoprotein", "assay": "Plasma protein binding (TRANSIL XL PPB test)", "assay_type": "in vitro ADME", "details": "± SD, fraction bound to plasma proteins, read-out: PPB fb (converted)", "description": "as §1"}}, "note": "Structures can show the parent of a compound that is named as a salt.", "data": [{"compound": "O=C(NC(c1ccccc1)C1CCCCN1)c1cccc(C(F)(F)F)c1Cl", "note": "[SSR504734, 2-chloro-N-[(S)-phenyl[(2S)-piperidin-2-yl]methyl]-3-trifluoromethyl benzamide monohydrochloride]", "values": [{"measurement": "fold increase of seizure threshold (CS50), time-course", "setting": "[1]; 30 mg/kg i.p., 60 and 120 min after administration, vs control", "value": "~1.3", "unit": "fold"}, {"measurement": "effect on seizure threshold (CS50), time-course", "setting": "[1]; 30 mg/kg i.p., at 30, 60, 120 and 240 min", "value": "significantly raised the seizure threshold"}, {"measurement": "fold increase in CC50 value", "setting": "[1]; 14-day repeated treatment, 30 mg/kg i.p.", "value": 1.2, "unit": "fold"}, {"measurement": "effect on seizure threshold", "setting": "[1]; 14-day repeated treatment, 3 and 10 mg/kg i.p.", "value": "no changes in seizure threshold"}, {"measurement": "effect on threshold for tonic hindlimb extension", "setting": "[1]; acute, 10 mg/kg i.p., 60 min before test", "value": "ineffective"}, {"measurement": "fold increase of current intensity necessary to induce hindlimb tonus", "setting": "[1]; acute, 30 mg/kg i.p., 60 min before test", "value": 1.2, "unit": "fold"}, {"measurement": "fold increase of current intensity necessary to induce hindlimb tonus", "setting": "[1]; acute, 50 mg/kg i.p., 60 min before test", "value": 1.6, "unit": "fold"}, {"measurement": "effect on current intensity necessary to induce psychomotor seizures", "setting": "[2]; 14-day administration i.p.", "value": "no statistically significant effect"}, {"measurement": "effect on current intensity necessary to induce psychomotor seizures", "setting": "[2]; single administration i.p.", "value": "no statistically significant effect"}, {"measurement": "effect on threshold for tonic hindlimb extension", "setting": "[3]", "value": "strong, dose-dependent increase"}, {"measurement": "level of inflammatory markers in liver samples", "setting": "[4]", "value": "No statistically significant changes"}, {"measurement": "Papp", "setting": "[5]; PAMPA, read-out: PAMPA Pe", "value": "14.8 ± 1.49", "unit": "×10⁻⁶ cm/s"}, {"measurement": "PAMPA Pe", "setting": "[5]", "value": "14.80 10^–6 cm/s"}, {"measurement": "effect on thresholds for myoclonic twitch, generalized clonus and forelimb tonus", "setting": "[6]; 14-day treatment i.p.", "value": "no significant effect"}, {"measurement": "effect on thresholds for myoclonic twitch, generalized clonus and forelimb tonus", "setting": "[6]; single administration i.p.", "value": "no significant effect"}, {"measurement": "fraction unbound", "setting": "[7]", "value": 0.013}]}]}
